# Test results: patent publication US4829086A, “Soft β-adrenergic blocking agents” (priority 1985, dated 1989)
# Where a name gives a salt, the structure may show the parent alone. Read-outs that look alike come from different tables or passages of the source.
# Legend:
# [1] = test system: heart rate response to isoproterenol (β-adrenergic); assay: Heart rate response to isoproterenol in rats (initial drug screening); assay type: in vivo, male Spraque-Dawley rats; settings: 6 mg/kg i.p.; for resting heart rate prior to administration of isoproterenol: mean ± SEM
# Description: Initial Drug Screening Protocol. Thirty-two male Spraque-Dawley rats (Blue Spruce Farms) initially weighing 300-450 gm were divided into seven different groups, each for a different drug to be tested: 12(n=4), 14(n=4), 17(n=5), 13(n=4) and 18(n=3), corresponding to the designated compounds 12, 14, 17, 13 and 18 (number of animals), respectively. The other two groups were controls (n=8, isoproterenol alone pretreated with carrier) and those treated with a known β-blocker, dl-propranolol (n=3). Ech animal was anesthetized with sodium pentobarbital (45 mg/kg) and the carotid artery was cannulated with PE-50 tubing. The cannula was subcutaneously threaded around the neck and exteriorized dorsally between the shoulder blades. Th cannula was filled with a heparin solution (300 μg/mL) and sealed with a solid 22 gauge stylet. The animals were housed in individual stainless steel cages, and two days were allowed for recovery from the surgery. Food and water were provided ad libitum. On the day of the experiment, the blood pressure and heart rate of each rat were monitored with a pressure transducer (Narco-Bio model P-1000) and the data recorded on a four-channel physiograph (Narco-Bio systems Marck IV). One hour was allowed as an equilibration period before any drugs were administered. All beta blockers were administered intraperitoneally at a dose of 6 mg/kg. Compounds 12 and 14 and dl-proranolol were dissolved in normal saline while compounds 13, 17 and 18 were dissolved in an ethanol: water solution (3:1). Depending on the trial, controls were administered the appropriate carrier. One hour after administration of the blocker, isoproterenol (Isuprel®, Wintrop Laboratories) was administered subcutaneously at a dose of 25 μg/kg. Blood pressures and heart rate also were recorded 3, 5, 10, 15, 20, 30, 45 and 60 minutes after isoproterenol administration. Both control and experimental animals were unrestrained and free moving in their home cage throughout the experiment. […] However, significant differences in the mean heart rate response amoung the 7 groups were observed: *p<0.005;**p<0.025. Comparisons between groups were made by the Newman-Keuls procedure with significance set at the 95% confidence interval. […] All data are shown as mean±standard error of the mean.
# [2] = test system: heart rate response to isoproterenol (β-adrenergic); assay: Cardiovascular experiments in dogs: blockade of isoproterenol heart rate response; assay type: in vivo, mongrel dogs; settings: for Duration, Mean (time at which response to isoproterenol had returned to control levels) / Duration, Range (time at which response to isoproterenol had returned to control levels) / Maximal blockade, Mean (time necessary to reach maximal blockade) / Maximal blockade, Range (time necessary to reach maximal blockade): 1 mg/kg i.v.; for Maximal blockade, Mean (time necessary to reach maximal blockade) / Maximal blockade, Range (time necessary to reach maximal blockade): 15 minute measurements
# Procedure: Method. Healthy, mongrel dogs were anesthetized with a combination of morphine sulfate (2.0 mg/kg, subcutaneously) followed in 20 minutes with pentabarbital sodium (15 mg/kg, intravenously). Supplemental pentabarbital was given as necessary. A femoral vein was catheterized with polyethylene tubing to the level of the heart for injecting drug solutions. A polyethylene tube filled with heparinized saline was inserted through the femoral artery and advanced to the thoracic aorta for the measurement of arterial pressure. The left carotid artery was cannulated with a Millar® transducer-tip catheter for measurement of left ventricular pressure (LVP). The rising slope of the LVP signal was differentiated to give dP/dt, an estimate of myocardial contractility. Heart rate was determined via a Grass cardiotachometer triggered by the R wave of the lead II EKG. All variables were recorded on a Grass polygraph.
# Dose-response curves were constructed for each experimental variable to graded i.v. doses of the β-adrenergic agonist, isoproterenol. A period of 3-5 minutes was allowed after each injection for variables to return to base-line. Following this, one of the four experimental β-adrenergic blocking agents was given i.v. over a one-minute period. Abbreviated dose-response curves (2-3 dose points) were again constructed to isoproterenol at 15, 30, 45, 60, 75 and 90 minutes after the administration of the test blockers. Using a 50-beat per minute (bpm) increase in heart rate as criteria, the degree of blockade was determined by dividing the dose of isoproterenol needed to produce a 50 bpm increase at various times following administration of an antagonists by the dose needed for this effect during the control period. The doses of the experimental β-adrenergic antagonists given were determined from previous experiments to produce an approximate two- or four-fold blockade of the heart rate response to isoproterenol.
# [3] = Hydrolytic rate in 0.01 N aqueous sodium hydroxide, pH 12.0; assay type: physicochemical; settings: for Observed pseudo first order hydrolytic rate constant k: 0.01 N NaOH, ± SEM; for Observed pseudo first order hydrolytic rate constant k / half-life: pH 12.0, ionic strength 0.10 M (NaCl), 27.3 ± 0.2° C.; for half-life: 0.01 n naoh, pH 12, 0.01 N NaOH, read-out: Half-life t1/2
# Procedure: (§1) Analytical Methods. A high pressure liquid chromatography (HPLC) method was developed for the determination of the rate constants. The chromatographic analysis was performed in a system consisting of Waters Associates Model 600-A Solvent Delivery System, Model U-6K Injector and Model 440 Dual Channel Absorbance Detector operated at 254 and 280 nm. A 30 cm×3.9 mm (internal diameter) reverse phase μBondpack C18 column (Waters Associates), operated at ambient temperature, was used for all separations. When plasma samples were analyzed, the column was protected with a 2.3 cm×3.9 mm (internal diameter) Guard Column (Waters) packed with μBondpack C18/Corasil packing material. The mobile phase used for the separation of 17 and its degradation product, 5, consisted of water, 1-hexane sulfonic acid in acetic acid (B-6 reagent, Waters), 0.1M triethanolamine and methanol (100:1:100:799). […] For the separation of compounds 10-16 and 18 and their degradation product 5, a mobile phase consisting of water, 1-hexane sulfonic acid in acetic acid (B-6 reagent, Waters), 0.1M triethanolamine and methanol (390:1:10:599) was used.
# (§2) Determination of the Hydrolytic Rate Constants in Aqueous Solutions. A 0.01M phosphate buffer and 0.01N sodium hydroxide solution were prepared from freshly distilled deionized water. This ionic strength was maintained at 0.1M with sodium chloride. The pH of the phosphate buffer was determined at 37.0° C. with a pH meter standardized at this temperature. For determination of the hydrolytic rate constants, a fresh concentrated solution of the ester in methanol was added to the hydrolytic medium previously equilibrated to the desired temperature and mixed thoroughly to result in an initial concentration of about 5×10^-4 mol. liter^-1. All reactions were run under pseudo first order conditions. Samples of 25 μL were injected into the column at various time intervals and the pseudo first order rate constants were determined from disappearance of the compound by linear regression of natural logarithm of the peak height versus time plots. The half-life and standard error of the rate constant were calculated for each run.
# [4] = Enzymatic hydrolytic cleavage in human plasma; assay type: in vitro ADME; settings: for Observed first order hydrolytic rate constant k: ± SEM; for half-life at 1000 µM: human, plasma; for hydrolysis in human plasma: three hours where stated
# Procedure: as §1, §2
# Determination of the Enzymatic Hydrolytic Cleavage Rates in Human Plasma. The freshly collected plasma used was obtained from the Civitan Regional Blood Center, Inc. (Gainesville, Fla.) and contained about 80% plasma diluted with anticoagulant citrate phosphate dextrose solution, U.S.P. The plasma was stored in a refrigerator and used within one week from the date it was collected.
# A portion of 50 μL of a freshly prepared solution of the compound in methanol was added to 10 mL plasma, previously equilibrated at 37.0° C. in a water bath, and mixed thoroughly to result in an initial concentration of 1×10^-3 mol. liter^-1. One mL samples of plasma were withdrawn from the test medium, mixed immediately with 4.0 mL ice cold 95% v/v ethanol, centrifuged and the supernatant analyzed by HPLC. The first order hydrolytic rate constant was determined as before in the aqueous solutions and the results are listed in TABLE II below.
# [5] = 37.0 ± 0.1° C., read-out: Half-life t1/2
Structure (SMILES),resting heart rate prior to administration of isoproterenol [1],"Duration, Mean (time at which response to isoproterenol had returned to control levels) [2]","Duration, Range (time at which response to isoproterenol had returned to control levels) [2]","Maximal blockade, Mean (time necessary to reach maximal blockade) [2]","Maximal blockade, Range (time necessary to reach maximal blockade) [2]",Observed pseudo first order hydrolytic rate constant k [3],half-life [3],Observed first order hydrolytic rate constant k ([4]; 37.0 ± 0.1° C.),"half-life at 1000 µM [4, 5]",other results
"CC(C)NCC(O)COc1cccc2ccccc12 (racemic) [d,l-propranolol, dl-propranolol, reference compound]",320±23 beat/minute,,,,,,,,,
"CCOC(=O)Cc1ccc(OCC(O)CNC(C)C)cc1 (centres unmarked) [Compound 10, Ethyl 4-(2-hydroxy-3-isopropylamino)-propoxyphenylacetate]",,~ 50 min,45 to 60 min,15 min,15-15 min,0.117 ± 0.001 min⁻¹,5.91 min,0.238 ± 0.010 min⁻¹,2.91 min,
"CC(C)NCC(O)COc1ccc(CC(=O)OC(C)C)cc1 (centres unmarked) [Compound 12, Isopropyl 4-(2-hydroxy-3-isopropylamino)propoxyphenylacetate]",345±19 beat/minute,,,,,2.07 ± 0.03 × 10^-2 min^-1,33.5 min,0.414 ± 0.001 × 10^-2 min^-1,167 min,hydrolyzed up to x times more slowly than many of the other esters [4]: up to 100 times
"CC(C)NCC(O)COc1ccc(CC(=O)OC2CCCCC2)cc1 (centres unmarked) [Compound 15, Cyclohexyl 4-(2-hydroxy-3-isopropylamino)propoxyphenylacetate oxalate 3/4 hydrate]",,~ 85 min,75 to 90 min,20 min,15 to 30 min,4.96 ± 0.03 × 10^-2 min^-1,14 min,1.46 ± 0.15 min⁻¹,0.47 min,"duration of action ([2]; i.v.): longest duration of action; time after administration at which antagonism dissipated / heart rate responsiveness returned to control ([2]; i.v.): approximately 90 minutes; β1-antagonist activity / blocking of cardiac effects of isoproterenol ([2]; i.v., FIG. 4): most potent in blocking the cardiac effects of isoproterenol; half-life at 1000 µM ([4]; shortest, read-out: plasma hydrolytic half-life): < 1 min"
"CC(C)NCC(O)COc1ccc(CC(=O)OC2C(C)CCCC2C)cc1 (centres unmarked) [Compound 16, 2,6-Dimethylcyclohexyl 4-(2-hydroxy-3-isopropylamino)propoxyphenylacetate oxalate hydrate]",,~ 65 min,45 to 90 min,38 min,15 to 60 min,,,1.64 ± 0.14 × 10^-2 min^-1,42.2 min,"duration of action ([2]; i.v.): much more variable and generally longer; hydrolysis kinetics ([3]; pH 12, 1:2 mixture of two isomers): biphastic kinetics; hydrolysis in human plasma ([4]; 37.0 ± 0.1° C., oxalate hydrate): did not hydrolyze in the plasma within 3 hours"
"CCCCOC(=O)Cc1ccc(OCC(O)CNC(C)(C)C)cc1 (centres unmarked) [Compound 18, n-Butyl 4-(2-hydroxy-3-tert-butylamino)propoxyphenylacetate oxalate hydrate]",307±7 beat/minute,,,,,7.19 ± 0.04 × 10^-2 min^-1,9.64 min,0.351 ± 0.019 min⁻¹,1.98 min,hydrolysis in human plasma ([4]; 37.0 ± 0.1° C.): did not affect the hydrolysis rates
"CC(C)NCC(O)COc1cccc2ccccc12 (centres unmarked) [propranolol, reference compound]",,,,,,,,,,"mean heart rate response to isoproterenol, comparison between groups ([1]; 1 hour before isoproterenol 25 μg/kg s.c., Newman-Keuls, first 20 minutes (17) or first 30 minutes (propranolol)): significantly different for the first 30 minutes; mean heart rate response to isoproterenol vs groups treated with compound 12 and 18 ([1]; 10 through 45 minutes following isoproterenol): significantly different than the groups treated with compound 12 and 18"
